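Following 48 hours of exposure in 96-well plates, responses at five concentrations were used to interpolate endpoints linearly. GI50: concentration for 50% inhibition of growth.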 Activity calls are given as the source filed them. Rule as the data show it: active = GI50 up to about 1.1 µM and inactive = higher.
Experiments:
Test in all cases: NCI anticancer screen, dose series, 48 h
MDA-MB-435 = test system: MDA-MB-435
HT-29 = test system: HT-29
NCI-H23 = test system: NCI-H23
SK-MEL-28 = test system: SK-MEL-28
Malme-3M = test system: Malme-3M
PC-3 = test system: PC-3
MCF7 = test system: MCF7
M14 = test system: M14
OVCAR-8 = test system: OVCAR-8
HL-60 = test system: HL-60
HCT-15 = test system: HCT-15
NCI-H226 = test system: NCI-H226
OVCAR-4 = test system: OVCAR-4
OVCAR-3 = test system: OVCAR-3
ACHN = test system: ACHN
SK-MEL-5 = test system: SK-MEL-5
HOP-92 = test system: HOP-92
CCRF-CEM = test system: CCRF-CEM
CAKI-1 = test system: CAKI-1
HOP-62 = test system: HOP-62
NCI-H522 = test system: NCI-H522
786-0 = test system: 786-0
SW-620 = test system: SW-620
RPMI-8226 = test system: RPMI-8226
COLO 205 = test system: COLO 205
IGROV-1 = test system: IGROV-1
UACC-257 = test system: UACC-257
EKVX = test system: EKVX
LOX IMVI = test system: LOX IMVI
A549 = test system: A549
HCT-116 = test system: HCT-116
TK-10 = test system: TK-10
K562 = test system: K562
MDA-N = test system: MDA-N
A498 = test system: A498
SK-OV-3 = test system: SK-OV-3
HCC 2998 = test system: HCC 2998
UACC-62 = test system: UACC-62
RXF 393 = test system: RXF 393
U-251 = test system: U-251
NCI/ADR-RES = test system: NCI/ADR-RES
SK-MEL-2 = test system: SK-MEL-2
SF-295 = test system: SF-295
SF-539 = test system: SF-539
SNB-75 = test system: SNB-75
SN12C = test system: SN12C
UO-31 = test system: UO-31
T47D = test system: T47D
KM12 = test system: KM12
MOLT-4 = test system: MOLT-4
SNB-19 = test system: SNB-19
DU-145 = test system: DU-145
MDA-MB-231 = test system: MDA-MB-231
NCI-H460 = test system: NCI-H460
OVCAR-5 = test system: OVCAR-5
SF-268 = test system: SF-268
SR = test system: SR

In the case of CNc1ncnc2c1nnn2C, the GI50 (MDA-MB-435) is reported as > 100 µM (inactive), the GI50 (HT-29) is reported as > 100 µM (inactive) and the GI50 (NCI-H23) is reported as > 100 µM (inactive). For the same compound, the GI50 (SK-MEL-28) was > 100 µM (inactive), the GI50 (Malme-3M) was > 100 µM (inactive) and the GI50 (PC-3) was > 100 µM (inactive). The GI50 (MCF7) was > 100 µM (inactive), the GI50 (M14) was > 100 µM (inactive) and the GI50 (OVCAR-8) was > 100 µM (inactive). The GI50 (HL-60) was > 100 µM (inactive), the GI50 (HCT-15) was over 100 µM and the GI50 (NCI-H226) was > 100 µM (inactive). For the same compound, the GI50 (OVCAR-4) was > 100 µM (inactive), the GI50 (OVCAR-3) was > 100 µM (inactive) and the GI50 (ACHN) was > 100 µM (inactive). The GI50 (SK-MEL-5) was > 100 µM (inactive), the GI50 (HOP-92) was > 100 µM (inactive) and the GI50 (CCRF-CEM) was > 100 µM (inactive). The GI50 (CAKI-1) was > 100 µM (inactive), the GI50 (HOP-62) was > 100 µM (inactive) and the GI50 (NCI-H522) was > 100 µM (inactive). For the same compound, the GI50 (786-0) was > 100 µM (inactive), the GI50 (SW-620) was > 100 µM (inactive) and the GI50 (RPMI-8226) was > 100 µM (inactive). The GI50 (COLO 205) was > 100 µM (inactive), the GI50 (IGROV-1) was > 100 µM (inactive) and the GI50 (UACC-257) was > 100 µM (inactive). For the same compound, the GI50 (EKVX) was > 100 µM (inactive), the GI50 (LOX IMVI) was > 100 µM (inactive) and the GI50 (A549) was > 100 µM (inactive). The GI50 (HCT-116) was > 100 µM (inactive), the GI50 (TK-10) was > 100 µM (inactive) and the GI50 (K562) was > 100 µM (inactive). For the same compound, the GI50 (MDA-N) was > 100 µM (inactive), the GI50 (A498) was > 100 µM (inactive) and the GI50 (SK-OV-3) was > 100 µM (inactive). For the same compound, the GI50 (HCC 2998) was > 100 µM (inactive), the GI50 (UACC-62) was > 100 µM (inactive) and the GI50 (RXF 393) was > 100 µM (inactive). The GI50 (U-251) was > 100 µM (inactive), the GI50 (NCI/ADR-RES) was > 100 µM (inactive) and the GI50 (SK-MEL-2) was > 100 µM (inactive). For the same compound, the GI50 (SF-295) was > 100 µM (inactive), the GI50 (SF-539) was > 100 µM (inactive) and the GI50 (SNB-75) was > 100 µM (inactive). The GI50 (SN12C) was > 100 µM (inactive), the GI50 (UO-31) was > 100 µM (inactive) and the GI50 (T47D) was > 100 µM (inactive). The GI50 (KM12) was > 100 µM (inactive), the GI50 (MOLT-4) was > 100 µM (inactive) and the GI50 (SNB-19) was > 100 µM (inactive). The GI50 (DU-145) was > 100 µM (inactive).
For CC[C@@]1(O)C(=O)OCc2c1cc1n(c2=O)Cc2c-1nc1ccccc1c2/C=N\c1ccc(N[C@@H]2c3cc4c(cc3[C@@H](c3cc(OC)c(O)c(OC)c3)[C@H]3C(=O)OC[C@@H]32)OCO4)cc1, the GI50 (NCI-H23) was 0.0118 µM (active), the GI50 (M14) was < 0.01 µM (active) and the GI50 (SK-MEL-5) was 0.0288 µM (active). For the same compound, the GI50 (CCRF-CEM) was < 0.01 µM (active), the GI50 (CAKI-1) was < 0.01 µM (active) and the GI50 (HOP-62) was < 0.01 µM (active). The GI50 (NCI-H522) was 0.0254 µM (active), the GI50 (RPMI-8226) was 0.0396 µM (active) and the GI50 (UACC-257) was 0.189 µM (active). The GI50 (LOX IMVI) was < 0.01 µM (active), the GI50 (A549) was 0.0292 µM (active) and the GI50 (HCT-116) was 0.0208 µM (active). For the same compound, the GI50 (K562) was 0.0505 µM (active), the GI50 (UACC-62) was < 0.01 µM (active) and the GI50 (U-251) was 0.0904 µM (active). For the same compound, the GI50 (SF-539) was < 0.01 µM (active), the GI50 (UO-31) was 0.0213 µM (active) and the GI50 (T47D) was < 0.01 µM (active). The GI50 (SNB-19) was 0.0257 µM (active).
In the case of NS(=O)(=O)c1ccc(/C=C/c2cccc(O)c2)cc1, the GI50 (MDA-MB-231) is reported as 38 µM (inactive), the GI50 (NCI-H460) is reported as 27.2 µM (inactive) and the GI50 (SK-MEL-28) is reported as 74.5 µM (inactive). The GI50 (Malme-3M) was 75.3 µM (inactive), the GI50 (PC-3) was 36.7 µM (inactive) and the GI50 (MCF7) was 38.9 µM (inactive). The GI50 (M14) was 55.6 µM (inactive), the GI50 (OVCAR-5) was > 100 µM (inactive) and the GI50 (OVCAR-3) was 25.9 µM (inactive). For the same compound, the GI50 (SK-MEL-5) was 22.2 µM (inactive), the GI50 (HOP-62) was > 100 µM (inactive) and the GI50 (786-0) was > 100 µM (inactive). For the same compound, the GI50 (SW-620) was 38.6 µM (inactive), the GI50 (COLO 205) was 20 µM (inactive) and the GI50 (UACC-257) was 69.5 µM (inactive). For the same compound, the GI50 (EKVX) was 55.1 µM (inactive), the GI50 (HCT-116) was 35.9 µM (inactive) and the GI50 (TK-10) was 28.7 µM (inactive). For the same compound, the GI50 (MDA-N) was 36.5 µM (inactive), the GI50 (A498) was 59.6 µM (inactive) and the GI50 (SK-OV-3) was 38.4 µM (inactive). For the same compound, the GI50 (HCC 2998) was 77.4 µM (inactive), the GI50 (RXF 393) was > 100 µM (inactive) and the GI50 (NCI/ADR-RES) was 32.9 µM (inactive). For the same compound, the GI50 (SK-MEL-2) was 25.4 µM (inactive), the GI50 (SF-295) was 46.2 µM (inactive) and the GI50 (SNB-75) was 46.8 µM (inactive). The GI50 (SN12C) was 50.1 µM (inactive), the GI50 (UO-31) was 20.4 µM (inactive) and the GI50 (T47D) was 25.6 µM (inactive). For the same compound, the GI50 (SNB-19) was 76.4 µM (inactive) and the GI50 (DU-145) was 47.8 µM (inactive).
In the case of CCOC(=O)Cc1nnc2n(-c3ccccc3)c(=O)c3ccccc3n12, the GI50 (MDA-MB-231) is reported as > 100 µM (inactive), the GI50 (MDA-MB-435) is reported as > 100 µM (inactive) and the GI50 (HT-29) is reported as > 100 µM (inactive). For the same compound, the GI50 (NCI-H23) was > 100 µM (inactive), the GI50 (NCI-H460) was > 100 µM (inactive) and the GI50 (SK-MEL-28) was 55.7 µM (inactive). The GI50 (Malme-3M) was > 100 µM (inactive), the GI50 (PC-3) was 34.5 µM (inactive) and the GI50 (SF-268) was 61.7 µM (inactive). For the same compound, the GI50 (MCF7) was > 100 µM (inactive), the GI50 (M14) was > 100 µM (inactive) and the GI50 (OVCAR-8) was > 100 µM (inactive). For the same compound, the GI50 (HL-60) was > 100 µM (inactive), the GI50 (HCT-15) was over 100 µM and the GI50 (OVCAR-5) was > 100 µM (inactive). The GI50 (NCI-H226) was > 100 µM (inactive), the GI50 (OVCAR-4) was > 100 µM (inactive) and the GI50 (OVCAR-3) was > 100 µM (inactive). The GI50 (SR) was > 100 µM (inactive), the GI50 (ACHN) was > 100 µM (inactive) and the GI50 (SK-MEL-5) was > 100 µM (inactive). For the same compound, the GI50 (HOP-92) was 17.1 µM (inactive), the GI50 (CCRF-CEM) was > 100 µM (inactive) and the GI50 (CAKI-1) was 20.2 µM (inactive). For the same compound, the GI50 (HOP-62) was 62.4 µM (inactive), the GI50 (NCI-H522) was 77.4 µM (inactive) and the GI50 (786-0) was > 100 µM (inactive). The GI50 (SW-620) was > 100 µM (inactive), the GI50 (COLO 205) was 83.8 µM (inactive) and the GI50 (IGROV-1) was > 100 µM (inactive). For the same compound, the GI50 (UACC-257) was 46.1 µM (inactive), the GI50 (EKVX) was > 100 µM (inactive) and the GI50 (LOX IMVI) was > 100 µM (inactive). The GI50 (A549) was > 100 µM (inactive), the GI50 (HCT-116) was 90.8 µM (inactive) and the GI50 (TK-10) was > 100 µM (inactive). For the same compound, the GI50 (K562) was > 100 µM (inactive), the GI50 (MDA-N) was > 100 µM (inactive) and the GI50 (A498) was > 100 µM (inactive). For the same compound, the GI50 (SK-OV-3) was > 100 µM (inactive), the GI50 (HCC 2998) was > 100 µM (inactive) and the GI50 (UACC-62) was 44.3 µM (inactive). The GI50 (RXF 393) was > 100 µM (inactive), the GI50 (U-251) was > 100 µM (inactive) and the GI50 (NCI/ADR-RES) was > 100 µM (inactive). For the same compound, the GI50 (SK-MEL-2) was 41.6 µM (inactive), the GI50 (SF-295) was > 100 µM (inactive) and the GI50 (SF-539) was 51.6 µM (inactive). For the same compound, the GI50 (SNB-75) was 43.9 µM (inactive), the GI50 (SN12C) was > 100 µM (inactive) and the GI50 (UO-31) was > 100 µM (inactive). For the same compound, the GI50 (T47D) was > 100 µM (inactive), the GI50 (KM12) was > 100 µM (inactive) and the GI50 (MOLT-4) was > 100 µM (inactive). For the same compound, the GI50 (SNB-19) was 74.8 µM (inactive) and the GI50 (DU-145) was > 100 µM (inactive).
For COc1ccc(Oc2nc3cc(N)cc(N)c3nc2-c2ccccc2)cc1, the GI50 (Malme-3M) was 55.1 µM (inactive), the GI50 (HOP-62) was 19.2 µM (inactive) and the GI50 (RPMI-8226) was 10.5 µM (inactive).
